Measured values as given in US20240389846A1, “Methods for Localization of Cancerous Tissue Using Fluorescent Molecular Imaging Agent for Diagnosis or Treatment” (Vergent Bioscience, Inc., priority 2022, published 2024).

Legend:
[1] = system: tumor; assay: Intraoperative NIR imaging of patients given intravenous VGT-309 before surgery (Examples 1-3); type: in vivo, human
[2] = system: tumor; assay: Phase 2 study: clinically significant events (CSEs) during tumor removal with imaging agent and NIR; type: in vivo, human; settings: Phase 2 study of VGT-309 in Australia
Source text: CSEs are one way to measure whether an imaging agent, such as VGT-309, adds a clinical benefit to the diagnosis and treatment process. In this context, CSEs generally fall into one of three categories: (1) localization of hard-to-find tumors, (2) identification of positive resection margins, and (3) identification of additional primary and metastatic lesions that were not previously detected using existing technologies.

[3] = system: cancerous tissue; assay: Preclinical / animal model studies: duration of VGT-309 fluorescence in tissue after administration; type: in vivo
Source text: There are several molecular imaging agents that are currently in various stages of development and testing, but of these agents VGT-309 is particularly advantageous. VGT-309 targets and covalently binds to cathepsin targets, which are present in larger amounts in solid tumors and tumor margins than in normal tissues. When this binding occurs, the quencher is cleaved from the molecule and VGT-309 becomes “active” at which point the tumor will fluoresce under near-infrared (NIR) light.

## CC1(C)C(/C=C/C2=C(Cl)C(=C/C=C3/N(CCCCCC(=O)NCCNC(=O)c4c(F)c(F)c(OCC(=O)[C@H](CCCCNC(=O)CCCCCN5/C(=C/C=C/C=C/C=C\C6=[N+](CCCCS(=O)(=O)[O-])c7ccc8ccccc8c7C6(C)C)C(C)(C)c6c5ccc5ccccc65)NC(=O)[C@H](Cc5ccccc5)NC(=O)OCc5ccccc5)c(F)c4F)c4ccc5cc(S(=O)(=O)O)ccc5c4C3(C)C)/CCC2)=[N+](CCCS(=O)(=O)[O-])c2ccc(N(CCCS(=O)(=O)O)CCCS(=O)(=O)O)cc21 [VGT-309]
[1]; Example 1, patient, 0.32 mg/kg approximately 21 hours prior to surgery
  visualization of tumor under NIR imaging: clearly show the location and extent of the tumor
[1]; Example 2, patient, 0.16 mg/kg approximately 21 hours prior to surgery
  localization of primary tumor under NIR: more easily locate the primary tumor
[1]; Example 2, patient, 0.16 mg/kg approximately 21 hours prior to surgery, biopsy confirmed that the cancer had spread
  detection of lymph node spread by fluorescence under NIR: unexpected fluorescence in a more distant lymph node
[1]; Example 3, patient with regrowth after radiation, 0.32 mg/kg approximately 18.5 hours prior to surgery
  identification of previously identified (primary) tumor: able to quickly identify and remove the previously identified tumor
[1]; Example 3, patient, 0.32 mg/kg approximately 18.5 hours prior to surgery, abnormal lung tissue confirmed cancerous under NIR
  identification of additional tumors (metastatic spread) using NIR: able to identify additional tumors using NIR
[2]
  fraction of patients who experienced a clinically significant event (CSE): one third
[3]; animal model studies suggest
  time VGT-309 may continue to emit a signal in tissue following administration: out to seven days
[3]; based on preclinical studies, under NIR light
  time window after administration in which VGT-309 can fluoresce cancerous tissue: two hours to four days
